Assays:
[1] = system: apoptosis-inducing factor (AIF); assay: Immunohistochemical analysis of AIF expression in LAGκ-1B tumors; assay type: in vivo, SCID mice; conditions: COMPOUND 1 1 mg/kg, bortezomib 0.5 mg/kg, alone or both; tumors excised post-treatment
Experimental: LAGκ-1B tumors were fixed in 4% paraformaldehyde and cut into 5 μm sections. Briefly, sections were blocked with Tris-buffered saline with 0.05% Tween-20 (TBST) and 3% BSA for 1 hour at room temperature and then incubated overnight with a rabbit antibody against AIF (Sigma, St. Louis, Mo.). The sections were washed three times with TBST and treated with horse radish […] anti-rabbit antibody (KPL, Gaithersburg, Md.) diluted 1:500 in TBST at room temperature for 2 hours. The slides were washed three times in TBST and placed in 3-amino-9-ethylcarbazole (AEC) buffer for 5 minutes, and color was detected using an AEC kit (Dako, Glostrup, Denmark). Staining was documented using an Olympus BX51 microscope (Olympus Imaging America Inc., Center Valley, Pa.) and analyzed by Microsuite Biological Suite program (Olympus BX51).

[2] = system: normal peripheral blood mononuclear cells (PBMCs); assay: in vitro
Text: (§1) The human myeloma cell line RPMI8226 was obtained from American Type Culture Collection (Rockville, Md.). The MM1S myeloma cell line was provided by Dr. Steven Rosen (Northwestern University, Chicago, Ill.). Normal peripheral blood mononuclear cells (PBMCs) were isolated by Histopaque® density gradient centrifugation, according to the manufacturer's protocol (Sigma-Aldrich, St. Louis, Mo.). Myeloma cell lines and PBMCs were maintained in RPMI 1640 (Omega Scientific, Tarzana, Calif.) supplemented with 10% fetal bovine serum, 2 mM L-glutamine, 100 IU/mL penicillin, 100 μg/mL streptomycin, and essential amino acids in an atmosphere of 5% carbon dioxide (CO2) at 37° C.
(§2) Cells were seeded at 10^5 cells/100 μL/well in 96-well plates and incubated for 24 hours. RPMI8226 and MM1S cells were cultured in the presence of vehicle, COMPOUND 1, bortezomib, melphalan, COMPOUND 1+bortezomib, or COMPOUND 1+melphalan for 48 hours. After the incubation period, cell viability was quantified using the CellTiter 96® AQueous Non-Radioactive Cell Proliferation Assay (Promega, Madison, Wis.). Each well was treated with MTS (3-(4,5-dimethylthiazol-2-yl)-5-(3-carboxymethoxyphenyl)-2-(4-sulfophenyl)-2H-tetrazolium, inner salt) for 1 to 4 hours, after which absorbance was recorded at 490 nm. The quantity of formazan product as measured by absorbance at 490 nm is directly proportional to the number of living cells in culture.
(§3) In order for therapy with two or more PIs to be feasible in vivo, the combination must spare non-neoplastic cells. […] A healthy donor's PBMCs were cultured for 48 hours in the presence of COMPOUND 1 alone, bortezomib alone, or both agents together, and cell viability was quantified by MTS assay.

[3] = in vitro; conditions: human
Text: as §1, §2, §3

[4] = system: MM1S cells; assay: Cell viability assay (MTS assay), MM1S cells; assay type: cell-based, human; conditions: 48 hours
Experimental: In vitro synergy between COMPOUND 1 and bortezomib or melphalan was assessed using the median effect method of Chou and Talalay (30). Combination indices (CIs) were calculated separately for each combination. […] CIs between 0.9 and 1.1 were considered to indicate additive drug effects (31).

[5] = system: RPMI8226 cells; assay: Cell viability assay (MTS assay), RPMI8226 cells; assay type: cell-based, human; conditions: RPMI8226, 48 hours
Experimental: Combination indices (CIs) were calculated separately for each combination. […] CIs between 0.9 and 1.1 were considered to indicate additive drug effects (31).

CC(C)C[C@H](NC(=O)[C@@H](NC(=O)c1cccc(-c2ccccc2)n1)[C@@H](C)O)B(O)O [COMPOUND 1, [(1R)-1-[[(2S,3R)-3-hydroxy-2-[6-phenyl-pyridine-2-carbonyl)amino]-1-oxobutyl]amino]-3-methylbutylboronic acid]
AIF expression vs vehicle-treated tumors [1]: elevated AIF expression
cytotoxic effects on normal PBMCs [2]: negligible cytotoxic effects
viability at 48 h, 0.009 µM [3]: ~75%
inhibition of viability ([4]; COMPOUND 1 0.1-10 nM): concentration-dependent inhibition of viability
cytotoxicity at 0.00175 µM ([4]; Homo sapiens, MM1.S, single-agent COMPOUND 1 1.75 nM, read-out: inhibition of cell viability): ~16%
IC50 ([5]; Homo sapiens, RPMI-8226): 8.5 nM
cytotoxicity at 0.009 µM ([5]; Homo sapiens, RPMI-8226, single-agent COMPOUND 1 9.0 nM, read-out: decrease in cell viability): 64%
inhibition of viability ([5]; COMPOUND 1 0.1-10 nM): concentration-dependent inhibition of viability
